We go through one molecule from patent publication US12583868B2, “JAK inhibitors and methods for synthesizing and using thereof” (GALDERMA HOLDING SA, priority 2020, dated 2026).

Data set [1] can be described thus: Protein binding analysis (RED), rat plasma. The conditions noted are these: 5 μM. Type of data set: in vitro ADME, male Wistar Han rat. The protocol:
The protein binding was assessed in plasma of Human, male balb-c mice, male Wistar Han rat, male Göttingen minipig by rapid equilibrium dialysis (RED) devices. After the plasma and buffer phosphate 50 mM pH7.4 were equilibrated at 37° C., the compound was added to plasma to reach a final concentration of 5 μM. An aliquot of plasma was withdrawn immediately. Equilibration under mild agitation was continued for 4 h. The plasma and buffer were sampled and samples were quenched with 4 volumes of acetonitrile and centrifuged. Supernatant was quantified in HPLC/MS/MS to calculate the recovery and the percentage of compound dissolved in the buffer (unbound) and bound to plasma proteins.

A further data set deals with T1, Tyk2 enzyme (Homo sapiens, UniProt P29597).
T1 construct: purchased Life Technologies PR8440C
The experiment in a line: In vitro enzyme assay (Cisbio kinase assay), Tyk2. It is filed as biochemical. The conditions noted are these: ATP 300 μM; read-out: Enzymatic assay: Tyk2.

Data set [2] is described as follows: Intrinsic clearance in hepatocytes, human. It is filed as in vitro ADME. The conditions noted are these: 2.5 μM. The protocol:
The intrinsic clearance was assessed in cryopreserved Hepatocytes obtained by Human livers donors of mix gender pooled together, male balb-c mouse, male Wistar Han rats and male Göttingen minipig, by looking at the parent compound disappearance. The incubations were performed using a final concentration of viable cells of 1 million/ml (viability above 70%) and test item of 2.5 μM. Incubations were followed up to 2 h. Aliquotes were withdrawn at different time points and reaction quenched with acetonitrile. After centrifugation the supernatant was analyzed by HPLC/MS to quantify the remaining amount of parent in comparison with time 0. The clearance was calculated by fitting the log of the percentage remaining with Graphpad Prism ver.7.

The target of another data set is T2, hERG channel (Homo sapiens, UniProt Q12809).
T2 construct: expressed in transfected cells; host or cells: CHO-K1
Put plainly: In vitro hERG channel whole cell patch clamp. Type of data set: cell-based. As to conditions: CHO-K1 cells expressing hERG. The procedure:
Blockade of the delayed rectifier potassium current (IKr) encoded by hERG gene (human ether a go go-related gene) can lead to QT interval prolongation and is therefore investigated as part of the cardiac risk assessment. This channel is critical for the repolarisation of the cardiac membrane. The effect of the compounds on IKr was assessed by whole cell patch clamp in stably transfected CHO-K1 cells expressing hERG (Human Ether-a-go-go Related Gene) channel following superfusion at different concentrations up to 30 μM.
On the technique in general: The hERG channel carries a current that helps repolarise heart muscle cells.

Data set [3] is described as follows: In vivo pharmacokinetic analysis in rat (iv). As to conditions: iv 1 mg/kg. The arrangement: species or system male Wistar Han rat. The procedure:
One male Wistar Han rat. Compound was administered intravenously to fed animal at a target dose of 1 mg/kg, dose volume: 2 mL/kg, in DMSO/hydroxypropyl-beta-cyclodextrin 20% in phosphate buffer 60 mM pH 7 (5:95). Blood samples were collected at various time points. Blood samples were then assayed using a method based upon protein precipitation with acetonitrile followed by LC/MS/MS analysis. Non-compartmental methods were used for pharmacokinetic analysis of blood concentration versus time data

For data set [4], the system named is IL-6 induced pSTAT3 in TF-1 cells. The experiment in a line: In vitro cellular pSTAT3 assay, IL-6 stimulated TF-1 cells. It is filed as cell-based. The conditions noted are these: Homo sapiens. The procedure:
. The flasks were incubated overnight at 37° C., 5% CO2 then seeded in 96 well plates (TPP) at 150000 cells/well in 25 μL. Cells were treated with 5 IL/well of serially diluted compounds in DMSO (final DMSO concentration of 0.1%) and incubated for 30 min at 37° C. IL-6 (6 IL/well, 100 ng/ml as a final concentration in Opti-MEM, Thermofisher, PHC0066) was added to the cell plates and followed by a 30-min incubation at 37° C. Next, cells were lysed by adding 12 μl/well of 4× supplemented lysis buffer, incubated at 4° C. for 30 min under agitation. The samples were processed for the pSTAT3 detection as described by the manufacturer (MSD) with 25 μl of non-diluted cell lysates tested. Compounds were tested in simplicates over 10 three-step dilutions in order to determine their IC50 values.

Where two headings read alike, the source gives them in different places.

T2 sequence (Q12809 whole entry): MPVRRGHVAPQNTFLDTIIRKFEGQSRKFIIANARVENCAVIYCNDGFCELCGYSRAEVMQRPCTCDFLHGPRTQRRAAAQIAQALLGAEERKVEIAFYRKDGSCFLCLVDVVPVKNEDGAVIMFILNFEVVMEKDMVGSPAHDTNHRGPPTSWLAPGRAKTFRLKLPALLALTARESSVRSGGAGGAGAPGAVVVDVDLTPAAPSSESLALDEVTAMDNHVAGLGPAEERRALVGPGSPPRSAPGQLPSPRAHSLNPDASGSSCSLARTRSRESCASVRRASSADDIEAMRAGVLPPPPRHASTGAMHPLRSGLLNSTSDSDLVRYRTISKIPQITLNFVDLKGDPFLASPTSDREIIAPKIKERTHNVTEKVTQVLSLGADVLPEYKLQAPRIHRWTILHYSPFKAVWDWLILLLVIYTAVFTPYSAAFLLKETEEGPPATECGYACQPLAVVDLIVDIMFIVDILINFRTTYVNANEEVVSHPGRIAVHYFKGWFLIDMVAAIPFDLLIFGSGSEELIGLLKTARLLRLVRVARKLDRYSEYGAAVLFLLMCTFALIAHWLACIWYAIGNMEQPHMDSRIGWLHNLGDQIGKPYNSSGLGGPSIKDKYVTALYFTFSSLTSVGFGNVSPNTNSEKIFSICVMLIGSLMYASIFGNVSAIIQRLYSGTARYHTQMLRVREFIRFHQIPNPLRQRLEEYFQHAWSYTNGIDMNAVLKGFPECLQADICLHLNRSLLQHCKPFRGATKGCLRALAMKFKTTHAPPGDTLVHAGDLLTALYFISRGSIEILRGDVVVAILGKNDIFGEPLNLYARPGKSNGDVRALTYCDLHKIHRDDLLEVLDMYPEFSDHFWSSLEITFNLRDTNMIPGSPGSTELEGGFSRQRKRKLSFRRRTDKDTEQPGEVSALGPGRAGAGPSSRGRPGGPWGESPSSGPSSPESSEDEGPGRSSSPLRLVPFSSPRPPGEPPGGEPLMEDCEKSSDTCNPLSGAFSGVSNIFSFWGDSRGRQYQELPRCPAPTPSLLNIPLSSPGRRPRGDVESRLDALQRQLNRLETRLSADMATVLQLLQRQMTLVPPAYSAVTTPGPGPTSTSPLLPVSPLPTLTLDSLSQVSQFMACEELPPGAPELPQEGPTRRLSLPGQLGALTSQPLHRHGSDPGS
T1 sequence (P29597 whole entry): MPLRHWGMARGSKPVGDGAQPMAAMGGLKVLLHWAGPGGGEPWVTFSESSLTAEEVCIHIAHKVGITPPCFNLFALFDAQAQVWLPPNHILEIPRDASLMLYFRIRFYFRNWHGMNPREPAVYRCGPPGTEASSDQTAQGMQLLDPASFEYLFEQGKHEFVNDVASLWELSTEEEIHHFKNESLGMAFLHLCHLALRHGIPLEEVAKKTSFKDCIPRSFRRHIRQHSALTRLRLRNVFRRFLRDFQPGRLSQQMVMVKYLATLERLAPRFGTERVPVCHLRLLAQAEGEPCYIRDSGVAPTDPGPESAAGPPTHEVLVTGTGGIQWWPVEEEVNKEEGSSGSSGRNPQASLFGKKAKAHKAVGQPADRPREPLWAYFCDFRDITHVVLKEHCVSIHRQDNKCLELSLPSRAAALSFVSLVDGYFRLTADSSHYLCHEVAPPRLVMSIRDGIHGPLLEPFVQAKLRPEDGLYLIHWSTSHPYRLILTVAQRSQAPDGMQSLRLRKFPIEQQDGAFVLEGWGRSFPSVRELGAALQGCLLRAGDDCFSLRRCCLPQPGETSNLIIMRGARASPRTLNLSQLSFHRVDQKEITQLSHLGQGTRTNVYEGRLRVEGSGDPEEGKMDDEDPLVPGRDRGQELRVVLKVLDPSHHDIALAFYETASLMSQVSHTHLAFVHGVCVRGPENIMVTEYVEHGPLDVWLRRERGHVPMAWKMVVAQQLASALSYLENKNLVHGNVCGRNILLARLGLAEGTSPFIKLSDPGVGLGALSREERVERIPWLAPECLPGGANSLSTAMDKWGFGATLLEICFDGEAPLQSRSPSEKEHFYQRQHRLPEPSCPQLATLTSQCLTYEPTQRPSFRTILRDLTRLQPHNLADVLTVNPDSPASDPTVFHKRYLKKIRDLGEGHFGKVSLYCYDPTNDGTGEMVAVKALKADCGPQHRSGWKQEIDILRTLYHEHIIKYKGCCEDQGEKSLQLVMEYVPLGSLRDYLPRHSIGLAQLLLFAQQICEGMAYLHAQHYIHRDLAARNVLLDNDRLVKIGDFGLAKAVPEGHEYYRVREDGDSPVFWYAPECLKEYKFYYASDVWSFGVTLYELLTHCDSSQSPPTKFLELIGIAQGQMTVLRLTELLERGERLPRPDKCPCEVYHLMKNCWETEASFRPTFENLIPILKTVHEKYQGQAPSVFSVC

In the case of `O=S(=O)(N[C@H]1C[C@@H](N2CCOc3cnc4[nH]ccc4c32)C1)C1CN(C2CC2)C1` [Compound E, 1-Cyclopropyl-N-((cis)-3-(2,3-dihydropyrrolo[3′,2′:5,6]pyrido[3,4-b][1,4]oxazin-1(7H)-yl)cyclobutyl)azetidine-3-sulfonamide], in data set [1], the rFU is recorded as 16%. The IC50 on Tyk2 enzyme worked out at 3450 nM; against hERG channel, 15000 nM; in data set [4] (TF-1, cellular assay IL6, read-out: Free IC50), 43 nM; in data set [4] (TF-1 cells, IL-6 100 ng/ml, read-out: Cellular Assay: IC50 IL6), 9.9 nM. Also, in data set [2], the “Intr. Clear. h heps” value was found to be 6.5 microL/min/10 6 cells. The “iv PK rat: ER” value in data set [3] was 67%. For the same molecule, in data set [3] (male, Wistar Han, whole blood, read-out: iv PK rat: Cl), the clearance was 52 mL/min/kg. The Vd (usually the apparent volume that relates the amount in the body to the concentration in plasma or blood) in data set [3] (male, Wistar Han, whole blood, read-out: iv PK rat: Vd) was determined as 1.8 L/kg. Besides, the half-life in data set [3] (male, Wistar Han, whole blood, read-out: iv PK rat: t½ (converted)) is 23.4 min.
